Measured values from patent US11311522B1 (Cavion, Inc., priority 2018, dated 2022).

System: patients with essential tremor
Experiment: T-CALM: TETRAS performance subscale (TETRAS-PS)
Conditions: for >5 to 10 point worsening / >10 point worsening: TETRAS-PS
[1] = Independent Video Raters, subgroup Baseline TETRAS-PS Severity <=Median, N=22
[2] = Independent Video Raters, subgroup Baseline TETRAS-PS Severity > Median, N=16
[3] = Independent Video Raters, subgroup No Beta-blocker Use at Day 1, N=20
[4] = Independent Video Raters, subgroup No Concurrent Tremor Medication at Day 1, N=14
[5] = Independent Video Raters, subgroup Using Beta-blocker at Day 1, N=18
[6] = Independent Video Raters, subgroup Using Concurrent Tremor Medication at Day 1, N=24
[7] = Investigator Rated, subgroup Baseline TETRAS-PS Severity <=Median, N=22
[8] = Investigator Rated, subgroup Baseline TETRAS-PS Severity > Median, N=15
[9] = Investigator Rated, subgroup No Beta-blocker Use at Day 1, N=19
[10] = Investigator Rated, subgroup No Concurrent Tremor Medication at Day 1, N=14
[11] = Investigator Rated, subgroup Using Beta-blocker at Day 1, N=18
[12] = Investigator Rated, subgroup Using Concurrent Tremor Medication at Day 1, N=23

SMILES: CC(C)c1ccc(CC(=O)N[C@H](C)c2ccc(OCC(F)(F)F)cn2)cc1 [CX-8998]
- TETRAS-PS Total Score change from baseline to Day 28, LS mean (SE) [1]: −0.6 (0.82)
- TETRAS-PS Total Score change from baseline to Day 28, Median (minimum, maximum) [1]: 0 (−9.5, 7.0)
- TETRAS-PS Total Score change from baseline to Day 28, Mean (SD) (Independent Video Raters, subgroup Baseline TETRAS-PS Severity <=Median, N=22, titrated up to 10 mg BID): −0.1 (3.98)
- TETRAS-PS Total Score change from baseline to Day 28, LS mean difference from placebo (95% CI) (Independent Video Raters, subgroup Baseline TETRAS-PS Severity > Median): −1.3 (−4.8, 2.3)
- TETRAS-PS Total Score change from baseline to Day 28, LS mean (SE) [2]: −3.5 (1.47)
- TETRAS-PS Total Score change from baseline to Day 28, Mean (SD) [2]: −3.6 (4.14)
- TETRAS-PS Total Score change from baseline to Day 28, Median (minimum, maximum) [2]: −3.0 (−11, 2.5)
- TETRAS-PS Total Score change from baseline to Day 28, LS mean difference from placebo (95% CI) (Independent Video Raters, subgroup No Beta-blocker Use at Day 1): −1.2 (−4.3, 1.8)
- TETRAS-PS Total Score change from baseline to Day 28, LS mean (SE) [3]: −1.3 (1.10)
- TETRAS-PS Total Score change from baseline to Day 28, Mean (SD) [3]: −1.6 (4.99)
- TETRAS-PS Total Score change from baseline to Day 28, Median (minimum, maximum) [3]: −2.0 (−11, 7.0)
- TETRAS-PS Total Score change from baseline to Day 28, LS mean difference from placebo (95% CI) (Independent Video Raters, subgroup No Concurrent Tremor Medication at Day 1): −2.0 (−5.8, 1.8)
- TETRAS-PS Total Score change from baseline to Day 28, LS mean (SE) [4]: −4.3 (2.05)
- TETRAS-PS Total Score change from baseline to Day 28, Median (minimum, maximum) [4]: −3.3 (−11, 7.0)
- TETRAS-PS Total Score change from baseline to Day 28, LS mean difference from placebo (95% CI) (Independent Video Raters, subgroup Using Beta-blocker at Day 1): 1.4 (−1.4, 4.3)
- TETRAS-PS Total Score change from baseline to Day 28, LS mean (SE) [5]: −2.5 (1.36)
- TETRAS-PS Total Score change from baseline to Day 28, Mean (SD) [5]: −1.5 (3.68)
- TETRAS-PS Total Score change from baseline to Day 28, Median (minimum, maximum) [5]: −1.3 (−9.5, 4.0)
- TETRAS-PS Total Score change from baseline to Day 28, LS mean difference from placebo (95% CI) (Independent Video Raters, subgroup Using Concurrent Tremor Medication at Day 1): 1.8 (−0.7, 4.3)
- TETRAS-PS Total Score change from baseline to Day 28, LS mean (SE) [6]: −1.6 (1.14)
- TETRAS-PS Total Score change from baseline to Day 28, Mean (SD) [6]: −1.1 (3.71)
- TETRAS-PS Total Score change from baseline to Day 28, Median (minimum, maximum) [6]: −1.3 (−9.5, 5.5)
- TETRAS-PS Total Score change from baseline to Day 28, LS mean difference from placebo (95% CI) (Investigator Rated, subgroup Baseline TETRAS-PS Severity <=Median): −1.2 (−3.1, 0.6)
- TETRAS-PS Total Score change from baseline to Day 28, LS mean (SE) [7]: −3.8 (0.67)
- TETRAS-PS Total Score change from baseline to Day 28, Mean (SD) [7]: −3.4 (3.74)
- TETRAS-PS Total Score change from baseline to Day 28, Median (minimum, maximum) [7]: −3.0 (−13.5, 1.0)
- TETRAS-PS Total Score change from baseline to Day 28, LS mean difference from placebo (95% CI) (Investigator Rated, subgroup Baseline TETRAS-PS Severity > Median): −3.5 (−7.4, 0.4)
- TETRAS-PS Total Score change from baseline to Day 28, LS mean (SE) [8]: −5.6 (1.60)
- TETRAS-PS Total Score change from baseline to Day 28, Mean (SD) [8]: −5.8 (4.48)
- TETRAS-PS Total Score change from baseline to Day 28, Median (minimum, maximum) [8]: −6.0 (−13, 4.5)
- TETRAS-PS Total Score change from baseline to Day 28, LS mean difference from placebo (95% CI) (Investigator Rated, subgroup No Beta-blocker Use at Day 1): −4.3 (−7.0, −1.7)
- TETRAS-PS Total Score change from baseline to Day 28, LS mean (SE) [9]: −5.6 (0.97)
- TETRAS-PS Total Score change from baseline to Day 28, Mean (SD) [9]: −4.5 (3.89)
- TETRAS-PS Total Score change from baseline to Day 28, Median (minimum, maximum) [9]: −4.0 (−12.4, 1.0)
- TETRAS-PS Total Score change from baseline to Day 28, LS mean difference from placebo (95% CI) (Investigator Rated, subgroup No Concurrent Tremor Medication at Day 1): −4.4 (−7.4, −1.3)
- TETRAS-PS Total Score change from baseline to Day 28, LS mean (SE) [10]: −6.2 (1.60)
- TETRAS-PS Total Score change from baseline to Day 28, Mean (SD) [10]: −5.0 (3.97)
- TETRAS-PS Total Score change from baseline to Day 28, Median (minimum, maximum) [10]: −4.5 (−12.5, 1.0)
- TETRAS-PS Total Score change from baseline to Day 28, LS mean difference from placebo (95% CI) (Investigator Rated, subgroup Using Beta-blocker at Day 1): −0.3 (−3.6, 3.0)
- TETRAS-PS Total Score change from baseline to Day 28, LS mean (SE) [11]: −3.6 (1.56)
- TETRAS-PS Total Score change from baseline to Day 28, Mean (SD) [11]: −4.2 (4.55)
- TETRAS-PS Total Score change from baseline to Day 28, Median (minimum, maximum) [11]: −4.0 (−13.5, 4.5)
- TETRAS-PS Total Score change from baseline to Day 28, LS mean difference from placebo (95% CI) (Investigator Rated, subgroup Using Concurrent Tremor Medication at Day 1): −0.5 (−3.2, 2.3)
- TETRAS-PS Total Score change from baseline to Day 28, LS mean (SE) [12]: −3.5 (1.29)
- TETRAS-PS Total Score change from baseline to Day 28, Mean (SD) [12]: −3.9 (4.31)
- TETRAS-PS Total Score change from baseline to Day 28, Median (minimum, maximum) [12]: −3.5 (−13.5, 4.5)
- >5 to 10 point worsening (Day 15): 0 n (%)
- >10 point worsening (Day 15): 0 n (%)
- >5 to 10 point worsening (Day 28): 0 n (%)
- >10 point worsening (Day 28): 0 n (%)
- TETRAS-PS change from baseline to Day 28, Mean (SD) (independent video raters): −1.6 (4.36)
- TETRAS-PS change from baseline to Day 28, Median (independent video raters): −1.5
- TETRAS-PS change from baseline to Day 28, Mean (SD) (investigator rated): −4.4 (4.16)
- TETRAS-PS change from baseline to Day 28, Median (investigator rated): −4.0
